The subject of this test is NL-RLuc virus (recombinant NL4-3 HIV with Renilla Luciferase gene). As to the kind of experiment: Inhibition of HIV replication (NL-RLuc virus in MT-2 cells, luciferase readout). The settings on record: MT2, 120 h. The class given is cell-based, Human immunodeficiency virus (HIV). The essentials:
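MT-2 cells infected with NL4-3-derived virus carrying Renilla luciferase in place of part of nef, grown 5 days with serial compound dilutions in RPMI 1640/10% FBS. Virus growth read as luciferase expression. EC50 from median effect equation, at least 2 experiments.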
Usually EC50 stands for the concentration needed to bring the measured effect to its halfway point. For the compound `Cc1nc(C)c([C@H](OC(C)(C)C)C(=O)O)c(N2CCC(C)(C)CC2)c1-c1ccc2c(c1)CCN(c1ncnc(N3CCC(CO)CC3)n1)C2` [Example 62, (S)-2-(tert-Butoxy)-2-(4-(4,4-dimethylpiperidin-1-yl)-5-(2-(4-(4-(hydroxymethyl)piperidin-1-yl)-1,3,5-triazin-2-yl)-1,2,3,4-tetrahydroisoquinolin-6-yl)-2,6-dimethylpyridin-3-yl)acetic Acid], the EC50 worked out at 3 nM. `Cc1nc(C)c([C@H](OC(C)(C)C)C(=O)O)c(N2CCC(C)(C)CC2)c1-c1ccc2c(c1)CCN(c1nc(N3CCOCC3)nn3cccc13)C2` [Example 84, (S)-2-(tert-Butoxy)-2-(4-(4,4-dimethylpiperidin-1-yl)-2,6-dimethyl-5-(2-(2-morpholinopyrrolo[2,1-f][1,2,4]triazin-4-yl)-1,2,3,4-tetrahydroisoquinolin-6-yl)pyridin-3-yl)acetic Acid]: the concentration for a half-maximal effect (EC50) came to 6 nM.

In the case of `CCOc1ncnc(N2CCc3cc(-c4c(C)nc(C)c([C@H](OC(C)(C)C)C(=O)O)c4N4CCC(C)(C)CC4)ccc3C2)c1C` [Example 78, (S)-2-(tert-Butoxy)-2-(4-(4,4-dimethylpiperidin-1-yl)-5-(2-(6-ethoxy-5-methylpyrimidin-4-yl)-1,2,3,4-tetrahydroisoquinolin-6-yl)-2,6-dimethylpyridin-3-yl)acetic Acid], the EC50 worked out at 5 nM. In the case of `Cc1nc(C)c([C@H](OC(C)(C)C)C(=O)O)c(N2CCC(C)(C)CC2)c1-c1ccc2c(c1)CCN(c1cc(-c3cccc(Cl)c3)ncn1)C2` [Example 82, (S)-2-(tert-Butoxy)-2-(5-(2-(6-(3-chlorophenyl)pyrimidin-4-yl)-1,2,3,4-tetrahydroisoquinolin-6-yl)-4-(4,4-dimethylpiperidin-1-yl)-2,6-dimethylpyridin-3-yl)acetic Acid], the EC50 was 15 nM. Turning to `Cc1nc(C)c([C@H](OC(C)(C)C)C(=O)O)c(N2CCC(C)(C)CC2)c1-c1ccc2c(c1)CCN(c1cc(N3CCOCC3)ncn1)C2` [Example 119, (S)-2-(tert-Butoxy)-2-(4-(4,4-dimethylpiperidin-1-yl)-2,6-dimethyl-5-(2-(6-morpholinopyrimidin-4-yl)-1,2,3,4-tetrahydroisoquinolin-6-yl)pyridin-3-yl)acetic Acid], the EC50 came out at 5 nM.

`CC1(C)CCN(c2c(-c3ccc4c(c3)CCN(c3ncnc5c3oc3ccccc35)C4)c(CNCC3CCOCC3)nc(Cl)c2[C@H](OC(C)(C)C)C(=O)O)CC1` [Example 111, (S)-2-(5-(2-(Benzofuro[3,2-d]pyrimidin-4-yl)-1,2,3,4-tetrahydroisoquinolin-6-yl)-2-chloro-4-(4,4-dimethylpiperidin-1-yl)-6-((((tetrahydro-2H-pyran-4-yl)methyl)amino)methyl)pyridin-3-yl)-2-(tert-butoxy)acetic Acid]: the EC50 amounted to 0.7 nM. Next, `Cc1nc(C)c([C@H](OC(C)(C)C)C(=O)O)c(N2CCC(C)(C)CC2)c1-c1ccc2c(c1)CCN(c1ncnc(N3C[C@@H](C)O[C@@H](C)C3)n1)C2` [Example 68, (S)-2-(tert-Butoxy)-2-(5-(2-(4-((2R,6S)-2,6-dimethylmorpholino)-1,3,5-triazin-2-yl)-1,2,3,4-tetrahydroisoquinolin-6-yl)-4-(4,4-dimethylpiperidin-1-yl)-2,6-dimethylpyridin-3-yl)acetic Acid]: 1 nM; `Cc1nc(NCCCN2CCCCC2)c(-c2ccc3c(c2)CCN(c2ncnc4c2oc2ccccc24)C3)c(N2CCC(C)(C)CC2)c1[C@H](OC(C)(C)C)C(=O)O` [Example 15, (S)-2-(5-(2-(Benzofuro[3,2-d]pyrimidin-4-yl)-1,2,3,4-tetrahydroisoquinolin-6-yl)-4-(4,4-dimethylpiperidin-1-yl)-2-methyl-6-((3-(piperidin-1-yl)propyl)amino)pyridin-3-yl)-2-(tert-butoxy)acetic Acid]: 2 nM.

For the origin of these results see patent US20200016136A1 (VIIV HEALTHCARE UK (NO. 5) LIMITED, priority 2017, published 2020).
